For 13 molecules, EC50 results are on record in patent US11040959B2, “Diprovocims: a new and potent class of TLR agonists” (The Scripps Research Institute, priority 2016, dated 2021).

Like-named read-outs stand apart in the source and are kept apart here. A value given as a limit tells only on which side of the number the result lay.

What is called EC50 is the concentration that produces a half-maximal response.

One test concerns mouse macrophages. The test can be described thus: stimulated release of TNF-α from mouse macrophages. It is filed as cell-based. In outline: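 EC50 derived from dose-response curves for stimulated TNF-α release from mouse macrophages.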
Test [1] has as its system differentiated human THP-1 cells. The test can be described thus: stimulated release of TNF-α from differentiated human THP-1 cells (ELISA, dose-response). It is filed as cell-based. The method, boiled down: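 Human THP-1 cells were PMA-differentiated toward macrophages, and stimulated TNF-α release was measured by ELISA. EC50 values were taken from dose-response curves.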
On the technique in general: In an ELISA, binding on a coated surface is turned into a signal by an enzyme label.

Where [2] appears, read: Mus musculus, Macrophage, Scheme 1, footnote b, read-out: EC50 TNF-α release from mouse macrophages.
[3] abbreviates: Homo sapiens, THP-1, Scheme 1, footnote a, read-out: EC50 TNF-α release from human THP-1 cells.
Where [4] appears, read: Macrophage, Table 7, TNF-α release from mouse macrophages, read-out: EC50 (nM) (mouse).
[5] abbreviates: Homo sapiens, THP-1, Table 7, TNF-α release from human THP-1 cells, read-out: EC50 (nM) (THP-1).
[6] abbreviates: Macrophage, Table 3, TNF-α release from mouse macrophages, read-out: EC50 (nM) (mouse).
The mark [7] stands for this setting: Homo sapiens, THP-1, Table 3, TNF-α release from human THP-1 cells, read-out: EC50 (nM) (THP-1).

As to `O=C(N[C@H]1C[C@@H]1c1ccccc1)[C@H]1CN(C(=O)c2ccc(C(=O)N3C[C@H](C(=O)N[C@@H]4C[C@H]4c4ccccc4)[C@@H](C(=O)N[C@@H]4C[C@H]4c4ccccc4)C3)cc2)C[C@@H]1C(=O)N[C@H]1C[C@@H]1c1ccccc1` [Compound 26, (3R,4R)-1-(4-((3R,4R)-3,4-Bis(((1R,2S)-2-phenylcyclopropyl)carbamoyl)-pyrrolidine-1-carbonyl)-benzoyl)—N^3,N^4-bis((1S,2R)-2-phenylcyclopropyl)-pyrrolidine-3,4-dicarboxamide], the results for the EC50 (in the test on mouse macrophages (setting [2]); in test [1] (setting [3])) were greater than 5000 nM and no less than 5000 nM, respectively.

As to `O=C(NCCc1ccc(F)cc1)[C@@H]1CN(C(=O)C#CC(=O)N2C[C@@H](C(=O)NCCc3ccc(F)cc3)[C@H](C(=O)NCCc3ccc(F)cc3)C2)C[C@H]1C(=O)NCCc1ccc(F)cc1` [Compound 100, (3S,3′S,4S,4′S)-1,1′-(But-2-ynedi-oyl)bis(N^3,N^4-bis(4-fluorophenethyl)pyrrolidine-3,4-dicarboxamide)], the concentration for a half-maximal effect (EC50) (with mouse macrophages (setting [4]); in test [1] (setting [5])) was greater than 5000 nM throughout.

Consider `CCCCCCCCCCCCCCNC(=O)[C@@H]1CN(C(=O)c2ccc(C(=O)N3C[C@@H](C(=O)NCCCCCCCCCCCCCC)[C@H](C(=O)NCCCCCCCCCCCCCC)C3)cc2)C[C@H]1C(=O)NCCCCCCCCCCCCCC` [Compound 141, (3S,3′S,4S,4′S)-1,1′-Terephthaloylbis(N^3,N^4-ditetradecylpyrrolidine-3,4-dicarboxamide)], for which the EC50 is greater than 5000 nM in the test on mouse macrophages (Macrophage, table of 140-146 (four lipid side chains), mouse macrophages, read-out: EC50 (nM) (mouse)) and greater than 5000 nM in test [1] (Homo sapiens, THP-1, table of 140-146 (four lipid side chains), human THP-1 cells, read-out: EC50 (nM) (THP-1)).

With `O=C(NCCc1ccc(F)cc1)[C@@H]1CN(C(=O)/C=C/C(=O)N2C[C@@H](C(=O)NCCc3ccc(F)cc3)[C@H](C(=O)NCCc3ccc(F)cc3)C2)C[C@H]1C(=O)NCCc1ccc(F)cc1` [Compound 101, (3S,3′S,4S,4′S)-1,1′-Fumaroylbis-(N^3,N^4-bis(4-fluorophnethyl)pyrrolidine-3,4-dicarboxamide)], the 50% effective concentration (EC50) (in the test with mouse macrophages (setting [4]); in test [1] (setting [5])) was greater than 5000 nM throughout.

With `CC(C)(C)OC(=O)COCCOCCOCC(=O)Nc1cc(C(=O)N2C[C@@H](C(=O)N[C@H]3C[C@@H]3c3ccccc3)[C@H](C(=O)N[C@H]3C[C@@H]3c3ccccc3)C2)ccc1C(=O)N1C[C@@H](C(=O)N[C@H]2C[C@@H]2c2ccccc2)[C@H](C(=O)N[C@H]2C[C@@H]2c2ccccc2)C1` [Compound 150, tert-Butyl 2-(2-(2-(2-((2,5-Bis((3S,4S)-3,4-bis(((1S,2R)-2-phenylcyclopropyl)carbamoyl)-pyrrolidine-1-carbonyl)phenyl)amino)-2-oxoethoxy)ethoxy)ethoxy)acetate], the EC50 was 130 nM with mouse macrophages (Macrophage, table of functionalized derivatives 147-151, mouse macrophages, read-out: EC50 (nM) (mouse)) and 15 nM in test [1] (Homo sapiens, THP-1, table of functionalized derivatives 147-151, human THP-1 cells, read-out: EC50 (nM) (THP-1)).

Take `COc1cc(C(=O)N2C[C@@H](C(=O)N[C@H]3C[C@@H]3c3ccccc3)[C@H](C(=O)N[C@H]3C[C@@H]3c3ccccc3)C2)ccc1C(=O)N1C[C@@H](C(=O)N[C@H]2C[C@@H]2c2ccccc2)[C@H](C(=O)N[C@H]2C[C@@H]2c2ccccc2)C1` [Compound 57, (3S,3′S,4S,4′S)-1,1′-(2-Methoxy-terephthaloyl)-bis(N^3,N^4-bis((1S,2R)-2-phenylcyclopropyl)-pyrrolidine-3,4-dicarboxamide)]: the EC50 with mouse macrophages (setting [6]) was found to be 250 nM; in test [1] (setting [7]), 30 nM.

As to `O=C(N[C@H]1C[C@@H]1c1ccccc1)[C@@H]1CN(C(=O)c2ccc(C(=O)N3C[C@@H](C(=O)N[C@H]4C[C@@H]4c4ccccc4)[C@H](C(=O)N[C@H]4C[C@@H]4c4ccccc4)C3)c([N+](=O)[O-])c2)C[C@H]1C(=O)N[C@H]1C[C@@H]1c1ccccc1` [Compound 54, (3S,3′S,4S,4′S)-1,1′-(2-Nitroterephthaloyl)-bis(N^3,N^4-bis((1S,2R)-2-phenylcyclopropyl)pyrrolidine-3,4-dicarboxamide)], the EC50 was greater than 5000 nM with mouse macrophages (setting [6]) and 20 nM in test [1] (setting [7]).

On to `O=C(N[C@H]1C[C@@H]1c1ccccc1)[C@@H]1CN(C(=O)c2ccc(C(=O)N3C[C@@H](C(=O)N[C@H]4C[C@@H]4c4ccccc4)[C@H](C(=O)N[C@H]4C[C@@H]4c4ccccc4)C3)c(O)c2)C[C@H]1C(=O)N[C@H]1C[C@@H]1c1ccccc1` [Compound 53, (3S,3′S,4S,4′S)-1,1′-(2-Hydroxyterephthaloyl)-bis(N^3,N^4-bis((1S,2R)-2-phenylcyclopropyl)pyrrolidine-3,4-dicarboxamide)], for which the EC50 was 130 nM with mouse macrophages (setting [6]) and 0.2 nM in test [1] (setting [7]).

For the molecule `Nc1cc(C(=O)N2C[C@@H](C(=O)N[C@H]3C[C@@H]3c3ccccc3)[C@H](C(=O)N[C@H]3C[C@@H]3c3ccccc3)C2)ccc1C(=O)N1C[C@@H](C(=O)N[C@H]2C[C@@H]2c2ccccc2)[C@H](C(=O)N[C@H]2C[C@@H]2c2ccccc2)C1` [Compound 55, (3S,3′S,4S,4′S)-1,1′-(2-Amino-terephthaloyl)-bis(N^3,N^4-bis((1S,2R)-2-phenylcyclopropyl)-pyrrolidine-3,4-dicarboxamide)], the figures for the EC50 (in the test with mouse macrophages (setting [6]); in test [1] (setting [7])) were 140 nM and 1 nM, respectively.

For `O=C(N[C@H]1C[C@@H]1c1ccccc1)[C@@H]1CN(C(=O)c2ccc(C(=O)N3C[C@@H](C(=O)N[C@@H]4C[C@H]4c4ccccc4)[C@H](C(=O)N[C@@H]4C[C@H]4c4ccccc4)C3)cc2)C[C@H]1C(=O)N[C@H]1C[C@@H]1c1ccccc1` [Compound 25, (3S,4S)-1-(4-((3S,4S)-3,4-Bis(((1R,2S)-2-phenylcyclopropyl)carbamoyl)-pyrrolidine-1-carbonyl)-benzoyl)—N^3,N^4-bis((1S,2R)-2-phenylcyclopropyl)-pyrrolidine-3,4-dicarboxamide], the EC50 in the test on mouse macrophages (setting [2]) was greater than 5000 nM; in test [1] (setting [3]) it was 6 nM.

On to `O=C(N[C@H]1C[C@@H]1c1ccccc1)[C@@H]1CN(C(=O)c2cc(Br)c(C(=O)N3C[C@@H](C(=O)N[C@H]4C[C@@H]4c4ccccc4)[C@H](C(=O)N[C@H]4C[C@@H]4c4ccccc4)C3)cc2Br)C[C@H]1C(=O)N[C@H]1C[C@@H]1c1ccccc1` [Compound 62, (3S,3′S,4S,4′S)-1,1′-(2,5-Dibromoterephthaloyl)-bis(N^3,N^4-bis((1S,2R)-2-phenylcyclopropyl)pyrrolidine-3,4-dicarboxamide)], for which the concentration giving a half-maximal response (EC50) was greater than 5000 nM in the test on mouse macrophages (setting [6]) and 860 nM in test [1] (setting [7]).

Regarding `O=C(N[C@H]1C[C@@H]1c1ccccc1)[C@@H]1CN(C(=O)c2ccc(-c3ccc(C(=O)N4C[C@@H](C(=O)N[C@H]5C[C@@H]5c5ccccc5)[C@H](C(=O)N[C@H]5C[C@@H]5c5ccccc5)C4)cc3)cc2)C[C@H]1C(=O)N[C@H]1C[C@@H]1c1ccccc1` [Compound 39, (3S,3′S,4S,4′S)-1,1′-(4,4′-Biphenyldicarboxoyl)-bis(N^3,N^4-bis((1S,2R)-2-phenylcyclopropyl)-pyrrolidine-3,4-dicarboxamide)], the EC50 was 2300 nM with mouse macrophages (Macrophage, Table 1, TNF-α release from mouse macrophages, read-out: EC50 (nM) (mouse)) and 90 nM in test [1] (Homo sapiens, THP-1, Table 1, TNF-α release from human THP-1 cells, read-out: EC50 (nM) (THP-1)).

As for `O=C(NCCc1ccc(F)cc1)C1CN(C(=O)COCC(=O)N2CC(C(=O)NCCc3ccc(F)cc3)C(C(=O)NCCc3ccc(F)cc3)C2)CC1C(=O)NCCc1ccc(F)cc1` [Compound 105, (3S,3′S,4S,4′S)-1,1′-(2,2′-Oxybis(acetyl))bis-(N^3,N^4-bis(4-fluorophenethyl)pyrrolidine-3,4-dicarboxamide)], the EC50 was greater than 5000 nM with mouse macrophages (Table 7, TNF-α release from mouse macrophages, read-out: EC50 (nM) (mouse)) and greater than 5000 nM in test [1] (Table 7, TNF-α release from human THP-1 cells, read-out: EC50 (nM) (THP-1)).
